{"source": "PubChem BioAssay AID1259408", "about": "(Genetic Toxicology Data Bank (GENE-TOX), 2018)", "test_system": "GENE-TOX genotoxicity assays, various organisms and cells", "test": "GENE-TOX mutagenicity studies", "conditions": "for call: Assay Type: In vivo carcinogenicity studies", "key": {"[1]": {"conditions": "Species/Cell Type: Allium cepa, Assay Type: Chromosome aberrations, Assay Code: ALC-, Evaluation Type: Evaluation A (Pre-1980)"}}, "note": "Active and inactive are the calls of the source. No rule for the calls is given here."}
{"smiles": "CN1CCC(=C2c3ccccc3C3OC3c3ccccc32)CC1", "note": "(stereo not drawn)", "values": [{"measurement": "mutagenic call", "setting": "Species/Cell Type: Salmonella typhimurium (one or more of the five standard strains: TA98, TA100, TA1535, TA1537, and TA1538), Assay Type: Histidine reverse gene mutation, Ames assay, Assay Code: SALT, Evaluation Type: Evaluation A (Pre-1980)", "result": "no conclusion"}]}
{"smiles": "CCCCC/C=C\\C/C=C\\C/C=C\\CCCCC(=O)O", "values": [{"measurement": "mutagenic call", "setting": "Species/Cell Type: Mammalian polychromatic erythrocytes, Assay Type: Micronucleus test, chromosome aberrations, Assay Code: MNTT, Evaluation Type: Evaluation B (Post-1980)", "result": "no conclusion"}]}
{"smiles": "CCN(CCCl)CCCNc1ccnc2ccc(OC)cc12", "values": [{"measurement": "mutagenic call", "setting": "Species/Cell Type: Neurospora crassa, Assay Type: Reverse gene mutation, Assay Code: NER+, Evaluation Type: Evaluation A (Pre-1980)", "result": "active; positive"}]}
{"smiles": "Cn1cnc2c1c(=O)[nH]c(=O)n2C", "values": [{"measurement": "mutagenic call", "setting": "[1]", "result": "inactive; negative"}, {"measurement": "mutagenic call", "setting": "Species/Cell Type: Human lymphocytes, Assay Type: Sister-chromatid exchange (SCE) in vitro, Assay Code: SCL+, Evaluation Type: Evaluation B (Post-1980)", "result": "active; positive"}, {"measurement": "mutagenic call", "setting": "Species/Cell Type: Human, Assay Type: Sister-chromatid exchange (SCE) in vitro, Assay Code: SC1+, Evaluation Type: Evaluation B (Post-1980)", "result": "active; positive"}, {"measurement": "mutagenic call", "setting": "Species/Cell Type: Mammalian polychromatic erythrocytes, Assay Type: Micronucleus test, chromosome aberrations, Assay Code: MNT+U, Dose Response: Unconfirmed positive response, Evaluation Type: Evaluation B (Post-1980)", "result": "active; positive"}, {"measurement": "mutagenic call", "setting": "Species/Cell Type: Nonhuman, Assay Type: Sister-chromatid exchange (SCE) in vitro, Assay Code: SC2+D, Dose Response: With dose response, Evaluation Type: Evaluation B (Post-1980)", "result": "active; positive"}, {"measurement": "mutagenic call", "setting": "Species/Cell Type: Nonhuman, Sex: Female, Assay Type: Sister-chromatid exchange (SCE) in vivo, Assay Code: SC3+DF, Dose Response: With dose response, Evaluation Type: Evaluation B (Post-1980)", "result": "active; positive"}, {"measurement": "mutagenic call", "setting": "Species/Cell Type: Nonhuman, Sex: Male, Assay Type: Sister-chromatid exchange (SCE) in vivo, Assay Code: SC3+DM, Dose Response: With dose response, Evaluation Type: Evaluation B (Post-1980)", "result": "active; positive"}]}
{"smiles": "ONc1ccc2ccccc2c1", "values": [{"measurement": "mutagenic call", "setting": "Species/Cell Type: Chinese hamster ovary (CHO) cells, Assay Type: Forward gene mutation at the HPRT locus, Assay Code: CHO+, Evaluation Type: Evaluation B (Post-1980)", "result": "active; positive"}, {"measurement": "mutagenic call", "setting": "Species/Cell Type: Escherichia coli polA (W3119 vs P3478), Assay Type: Rec-assay, DNA effects (bacterial DNA repair), Assay Code: RE1+, Evaluation Type: Evaluation A (Pre-1980)", "result": "active; positive"}, {"measurement": "mutagenic call", "setting": "Species/Cell Type: Neurospora crassa, Assay Type: Forward gene mutation, Assay Code: NEF+, Evaluation Type: Evaluation A (Pre-1980)", "result": "active; positive"}, {"measurement": "call", "setting": "Species/Cell Type: Nonhuman, Assay Code: CCG+, Evaluation Type: Evaluation A (Pre-1980)", "result": "active; positive"}, {"measurement": "mutagenic call", "setting": "Species/Cell Type: Saccharomyces cerevisiae, Assay Type: Mitotic recombination or gene conversion, Assay Code: YEH+, Evaluation Type: Evaluation A (Pre-1980)", "result": "active; positive"}, {"measurement": "mutagenic call", "setting": "Species/Cell Type: Salmonella typhimurium (one or more of the five standard strains: TA98, TA100, TA1535, TA1537, and TA1538), Assay Type: Histidine reverse gene mutation, Ames assay, Assay Code: SAL+, Evaluation Type: Evaluation A (Pre-1980)", "result": "active; positive"}, {"measurement": "mutagenic call", "setting": "Species/Cell Type: Salmonella typhimurium, Assay Type: Forward and reverse gene mutation, host-mediated assay, Assay Code: HMA+, Evaluation Type: Evaluation A (Pre-1980)", "result": "active; positive"}]}
{"smiles": "C=Cc1ccc(C)cc1", "values": [{"measurement": "mutagenic call", "setting": "Species/Cell Type: Human lymphocytes, Assay Type: Sister-chromatid exchange (SCE) in vitro, Assay Code: SCL+D, Dose Response: With dose response, Evaluation Type: Evaluation B (Post-1980)", "result": "active; positive"}, {"measurement": "mutagenic call", "setting": "Species/Cell Type: Human, Assay Type: Sister-chromatid exchange (SCE) in vitro, Assay Code: SC1+D, Dose Response: With dose response, Evaluation Type: Evaluation B (Post-1980)", "result": "active; positive"}]}
{"smiles": "ClC1=C(Cl)C2(Cl)C3C(Cl)C(Cl)CC3C1(Cl)C2(Cl)Cl", "note": "(stereo not drawn)", "values": [{"measurement": "mutagenic call", "setting": "Species/Cell Type: Chinese hamster lung (V79) cells, Assay Type: Forward gene mutation at the HPRT or ouabain locus, Assay Code: V79+, Evaluation Type: Evaluation A (Pre-1980)", "result": "active; positive"}, {"measurement": "call", "setting": "Species/Cell Type: Nonhuman, Assay Code: CCG+L, Evaluation Type: Evaluation A (Pre-1980)", "result": "active; positive"}, {"measurement": "mutagenic call", "setting": "Species/Cell Type: Rodents, Sex: Male, Assay Type: Dominant lethal test, Assay Code: DLTT, Evaluation Type: Evaluation A (Pre-1980)", "result": "no conclusion"}, {"measurement": "mutagenic call", "setting": "Species/Cell Type: Zea mays (corn), Assay Type: Gene mutation, Assay Code: ZEM+, Evaluation Type: Evaluation A (Pre-1980)", "result": "active; positive"}]}
{"smiles": "O=C1OC2(c3ccccc31)c1cc(I)c(O)c(I)c1Oc1c2cc(I)c(O)c1I", "values": [{"measurement": "mutagenic call", "setting": "Species/Cell Type: Bacillus subtilis (H17 vs M45), Assay Type: Rec-assay, spot test, DNA effects (bacterial DNA repair), Assay Code: REW-, Evaluation Type: Evaluation A (Pre-1980)", "result": "inactive; negative"}, {"measurement": "mutagenic call", "setting": "Species/Cell Type: Bacillus subtilis (H17 vs M45T), Assay Type: Rec-assay, spot test, DNA effects (bacterial DNA repair), Assay Code: REXT, Evaluation Type: Evaluation A (Pre-1980)", "result": "no conclusion"}, {"measurement": "mutagenic call", "setting": "Species/Cell Type: Mammalian polychromatic erythrocytes, Assay Type: Micronucleus test, chromosome aberrations, Assay Code: MNT+, Evaluation Type: Evaluation B (Post-1980)", "result": "active; positive"}, {"measurement": "mutagenic call", "setting": "Species/Cell Type: Saccharomyces cerevisiae, Assay Type: Mitotic recombination or gene conversion, Assay Code: YEC-, Evaluation Type: Evaluation A (Pre-1980)", "result": "inactive; negative"}, {"measurement": "mutagenic call", "setting": "Species/Cell Type: Salmonella typhimurium (one or more of the five standard strains: TA98, TA100, TA1535, TA1537, and TA1538), Assay Type: Histidine reverse gene mutation, Ames assay, Assay Code: SAL-, Evaluation Type: Evaluation A (Pre-1980)", "result": "inactive; negative"}]}
{"smiles": "Nc1ncnc2c1ncn2[C@H]1C[C@H](O)[C@@H](CO)O1", "values": [{"measurement": "mutagenic call", "setting": "Species/Cell Type: Glycine max (soybean), Assay Type: Gene mutation, Assay Code: GLM-, Evaluation Type: Evaluation A (Pre-1980)", "result": "inactive; negative"}, {"measurement": "mutagenic call", "setting": "Species/Cell Type: Nonhuman, Assay Type: Sister-chromatid exchange (SCE) in vitro, Assay Code: SC2T, Evaluation Type: Evaluation B (Post-1980)", "result": "no conclusion"}]}
{"smiles": "Oc1c(Cl)cccc1Cl", "values": [{"measurement": "mutagenic call", "setting": "[1]", "result": "inactive; negative"}]}
{"smiles": "OCC(O)CCl", "note": "(stereo not drawn)", "values": [{"measurement": "mutagenic call", "setting": "Species/Cell Type: Rat, Sex: Male, Assay Type: Sperm morphology, Assay Code: SPAT, Evaluation Type: Evaluation A (Pre-1980)", "result": "no conclusion"}, {"measurement": "mutagenic call", "setting": "Species/Cell Type: Rodents, Sex: Male, Assay Type: Dominant lethal test, Assay Code: DLT-, Evaluation Type: Evaluation A (Pre-1980)", "result": "inactive; negative"}]}
